Assay results taken from patent publication US12496304B2, “Selective glucocorticoid receptor modifiers for treating impaired skin wound healing” (AKRIBES BIOMEDICAL GMBH, priority 2019, dated 2025).
Read-outs that look alike come from different tables or passages of the source.

Legend:
glucocorticoid receptor = biological target: T1, glucocorticoid receptor (Homo sapiens, UniProt P04150); conditions: for localization of the glucocorticoid receptor: 45 minutes at 37° C.
T1 sequence (P04150 1-777): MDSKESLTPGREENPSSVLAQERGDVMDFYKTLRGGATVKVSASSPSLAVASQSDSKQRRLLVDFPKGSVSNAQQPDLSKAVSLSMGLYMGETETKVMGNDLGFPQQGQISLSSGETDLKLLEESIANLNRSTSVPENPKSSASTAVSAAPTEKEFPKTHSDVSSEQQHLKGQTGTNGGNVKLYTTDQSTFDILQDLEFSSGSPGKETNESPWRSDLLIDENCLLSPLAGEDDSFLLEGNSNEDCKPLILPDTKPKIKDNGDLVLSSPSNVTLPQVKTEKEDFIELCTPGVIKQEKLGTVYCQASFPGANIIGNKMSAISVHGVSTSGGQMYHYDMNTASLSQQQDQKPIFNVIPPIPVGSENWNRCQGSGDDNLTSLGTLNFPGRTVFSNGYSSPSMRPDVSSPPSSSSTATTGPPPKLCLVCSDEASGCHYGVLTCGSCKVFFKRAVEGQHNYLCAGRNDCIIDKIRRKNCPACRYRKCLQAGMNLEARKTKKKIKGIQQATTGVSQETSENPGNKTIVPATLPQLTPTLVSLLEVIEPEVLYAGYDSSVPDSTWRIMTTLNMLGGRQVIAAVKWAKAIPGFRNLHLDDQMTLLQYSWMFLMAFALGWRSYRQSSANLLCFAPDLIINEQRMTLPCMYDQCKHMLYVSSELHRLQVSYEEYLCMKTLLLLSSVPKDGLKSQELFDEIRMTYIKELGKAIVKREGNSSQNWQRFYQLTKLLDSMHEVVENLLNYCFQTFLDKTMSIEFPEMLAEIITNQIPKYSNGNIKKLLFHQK

[1] = test system: human dermal fibroblast (HDF) cells; experiment: Fibroblast-derived matrix formation (FDM) assay, 3D fibroblast culture; assay type: cell-based; conditions: for formation of fibroblast-derived matrix (3D): WE from patient #92 (FIG. 12)
Experimental: Human dermal fibroblast (HDF) cells were seeded at 1250 cells/well on day −3 into 384-well tissue culture plates, which had been pre-coated for 1 hour at 37° C. with 0.2% gelatin solution (Sigma). When the cells reached confluence (=day 0), a matrix promoting supplement (vitamin C: 2-phospho-L-ascorbic acid trisodium salt, 100 μg/ml; Sigma) was added together with test samples containing TGF-β1 or graded concentrations of compounds −/+WE as described for the HDF proliferation assay. After 4 days, medium was replaced by fresh vitamin C—and stimulus—as well as compound-containing medium, maintaining the conditions initiated on day 0. TGF-β1 was included as a positive control to promote FDM formation. After a total incubation time of 7 to 8 days, FDM production was measured in fixed cultures via SRB staining and evaluated as described above. In some cases, the experiment was stopped and evaluated already on day 4.

[2] = test system: primary human dermal fibroblasts (HDF); experiment: Fibroblast proliferation assay (2D) in the presence of wound exudate; assay type: cell-based; conditions: for fibroblast proliferation (2D) with wound exudate: graded concentrations
Experimental: (§1) Primary human dermal fibroblasts (HDF) were purchased from CELLnTEC, Bern. They were routinely grown in Dulbecco's modified Eagle's medium (DMEM) containing 10% FCS, 2 mM glutamine, and 100 U/ml penicillin/100 μg/ml streptomycin. Media, antibiotics, and glutamine were bought from Lonza. The cells were used at passage 5-15. Cells were trypsinized and seeded at 2500 cells/well in 30 μl into the inner wells of 384-well plates in the absence or presence of graded compound concentrations with or without different dilutions of sterile-filtered WE in medium. For control samples, 30 μl medium was added instead of specific stimuli. The outer wells were loaded with sterile water. The cells were incubated for 72 hours at 37° C.
(§2) At the end of the incubation period, supernatants were removed for the determination of IL-1β, and the cells were fixed with 4% paraformaldehyde (Morphisto) for 15 minutes at room temperature and washed 3 times with PBS. A control plate was fixed after the overnight adherence of the cells (day 1) to determine the starting cell number.
Total cellular protein was determined as a measure of cell number by staining the fixed cells with sulforhodamine B (SRB, Sigma). A 0.4% SRB solution in 1% acetic acid was added to the wells for 30 minutes. The wells were then washed with 1% acetic acid until the wash solution remained colorless. After drying, the dye was eluted with 10 mM Tris-HCl, pH8.5, and absorbance was measured either at 550 or 492 nm for lower and higher cell densities, respectively. The average absorbance of the sample representing the day 1 starting cell number was subtracted from the absorbance values of the WE-treated cells.
All experiments were carried out in triplicate for each sample and concentration, and means±standard deviation (SD) were used for the evaluation of the experiment. Results are expressed as percentage of control values for unstimulated cells.

IL-8 [3] = experiment: U937 cell stimulation assay (LPS-induced IL-8); assay type: cell-based, human; conditions: LPS 100 ng/ml, 16 hours (FIG. 16A)
Experimental: The human monocytic cell line U937 (ATCC CRL 1593) was routinely grown in RPMI_1640 supplemented by 10% FCS and 2 mM glutamine, and 100 U/ml penicillin/100 μg/ml streptomycin. Cells were seeded at 4×10^5/ml in 50 μl/well of a 384-well plate and combined cells with graded concentrations of test compounds and LPS at 100 ng/ml. After 16 hours, the supernatants were transferred to fresh plates and frozen at −20° C. for IL-8 analysis, using a commercial ELISA kit.

IL-1β = IL-1β secretion into the supernatant in the fibroblast proliferation assay (ELISA); assay type: cell-based, human; conditions: graded concentrations
Experimental: as §1, §2
IL-1β levels were determined with a commercial ELISA kit. The amount of IL-1β contained in the wound exudate added to the cells was subtracted from the total IL-B in the supernatants in order to determine the cytokine secreted by the cells.

IL-8 [4] = experiment: Primary human monocyte cytokine secretion assay (spontaneous IL-8); assay type: cell-based; conditions: 16 hours (FIG. 16B)
Experimental: Primary human monocytes were prepared from peripheral blood mononuclear cells (PBMC). PBMC were isolated from buffy coats obtained from the Red Cross, Vienna, using LymphoPrep (Technoclone). 30 ml of buffy concentrate was diluted 1:2 with PBS, gently underlayered with 15 ml Lymphoprep in a 50 ml Falcon tube and centrifuged for 25 minutes at 1800 rpm at 21° C. The interphase was carefully transferred to a new Falcon tube and filled up to 50 ml with ice cold PBS. After another centrifugation step (10 minutes, 1200 rpm, 4° C.), the cell pellet was washed 3 times with PBS, resuspended in RPMI medium containing 20% FCS and 10% DMSO and frozen in liquid nitrogen. Monocytes were generated from frozen aliquots using positive selection with the CD14 Beads-Kit (Miltenyi) on an autoMACS-Sorter (Miltenyi) according to the manufacturer's instructions.
Cells were seeded at 8×10^5/ml in 50 μl/well of a 384-well plate and combined cells with graded concentrations of test compounds. After 16 hours, the supernatants were transferred to fresh plates and frozen at −20° C. for IL-8 analysis, using a commercial ELISA kit.

| Compound | localization of the glucocorticoid receptor (glucocorticoid receptor; 0.1 nM) | localization of the glucocorticoid receptor (glucocorticoid receptor; 1 nM) | localization of the glucocorticoid receptor (glucocorticoid receptor; 100 nM) | localization of the glucocorticoid receptor (glucocorticoid receptor; 10 nm) | formation of fibroblast-derived matrix (3D) [1] | IL-1β secretion into the supernatant (IL-1β; WE-1 (FIG. 2B, 9B)) | IL-1β secretion into the supernatant (IL-1β; WE-2 (FIG. 10B)) | IL-1β secretion into the supernatant (IL-1β; WE-3 (FIG. 11B)) | fibroblast proliferation (2D) with wound exudate ([2]; WE-1 (FIG. 2A, 9A)) | fibroblast proliferation (2D) with wound exudate ([2]; WE-2 (FIG. 10A)) | fibroblast proliferation (2D) with wound exudate ([2]; WE-3 (FIG. 11A)) | also measured |
| --- | --- | --- | --- | --- | --- | --- | --- | --- | --- | --- | --- | --- |
| C[C@H](NC(=O)C(C)(F)F)[C@H](Oc1ccc2c(cnn2-c2cccc(C(=O)NC3CCOC3)c2)c1)c1ccc2c(c1)OCCO2 (stereo partly drawn) [AZD7594, 3-(5-((1R,2S)-2-(2,2-difluoropropanamido)-1-(2,3-dihydrobenzo[b][1,4]dioxin-6-yl)propoxy)-1H-indazol-1-yl)-N-(tetrahydrofuran-3-yl)benzamide] | N/C | N | N | N | most active of the SEGRM tested in 3D culture |  |  |  |  |  |  | fibroblast proliferation, % proliferation of respective WE control ([2]; 1 μM, WE-02, WE control set to 100%): 196%; fibroblast proliferation, % proliferation of respective WE control ([2]; 1 μM, WE-03, WE control set to 100%): 161%; fibroblast proliferation, % proliferation of respective WE control ([2]; 1 μM, WE-04, WE control set to 100%): 1139%; fibroblast proliferation, % proliferation of respective WE control ([2]; 1 μM, WE-05, WE control set to 100%): 203%; fibroblast proliferation, % proliferation of respective WE control ([2]; 1 μM, WE-37, WE control set to 100%): 171%; fibroblast proliferation, % proliferation of respective WE control ([2]; 1 μM, WE-77, WE control set to 100%): 128%; efficacy on fibroblast proliferation compared with mapracorat ([2]; 1 μM, plurality of different wound exudates): comparable to the effect of mapracorat |
| CCOC[C@]12Cc3cnn(-c4ccc(F)cc4)c3C=C1CCN(S(=O)(=O)c1ccc(C(F)(F)F)cc1)C2 [CORT108297] |  | N/C | N | N |  |  |  |  |  |  |  |  |
| C[C@H]1C[C@H]2[C@@H]3CCC4=CC(=O)C=C[C@]4(C)[C@@]3(F)[C@@H](O)C[C@]2(C)[C@@]1(O)C(=O)CCl [Clobetasol] |  |  |  |  |  |  |  |  |  |  |  | glucocorticoid receptor localization, positive control (glucocorticoid receptor): shows nuclear staining |
| CC(C)(C[C@@](O)(Cc1cc2ccncc2[nH]1)C(F)(F)F)c1cc(F)ccc1O [HY14234] | N/C | N | N | N | found to be active | inhibited IL-1β secretion at the same concentrations | inhibition of IL-1β secretion was negligible | inhibited IL-1β secretion at the same concentrations | dose-dependent partial reversion of the wound exudate (WE)-induced inhibition of fibroblast proliferation | dose-dependently reversed inhibition of wound exudate (WE)-induced fibroblast proliferation | dose-dependently reversed inhibition of wound exudate (WE)-induced fibroblast proliferation | LPS-induced IL-8 secretion in U937 cells (IL-8 [3]): inhibited both LPS-induced and spontaneous IL-8 secretion; spontaneous IL-8 secretion in human monocytes (IL-8 [4]): inhibited both LPS-induced and spontaneous IL-8 secretion |
| Cc1noc(=O)c2ccc(NC(=O)C(O)(CC(C)(C)c3cccc4c3OCC4)C(F)(F)F)cc12 (centres unmarked) [ZK216348] |  |  |  |  | positive effect | inhibited IL-1β secretion at the same concentrations | inhibition of IL-1β secretion was negligible | inhibited IL-1β secretion at the same concentrations | dose-dependent partial reversion of the wound exudate (WE)-induced inhibition of fibroblast proliferation | dose-dependently reversed inhibition of wound exudate (WE)-induced fibroblast proliferation | dose-dependently reversed inhibition of wound exudate (WE)-induced fibroblast proliferation | rescue of fibroblasts in 2D culture from wound-exudate-induced inhibition of proliferation, compared with HY14234 ([2]; FIGS. 9A, 10A, 11A): less efficient |
| CC#C[C@]1(O)CC[C@H]2[C@@H]3CCC4=CC(=O)CCC4=C3[C@@H](c3ccc(N(C)C)cc3)C[C@@]21C [mifepristone] |  |  |  |  |  |  |  |  |  |  |  | effect on the matrix-promoting activity of BI-653048 ([1]; mifepristone 1 μM, WE-1 (FIG. 4)): completely abrogated |
